Reference: patent US20240174603A1 (Rappta Therapeutics Oy, priority 2021, published 2024)

These compounds were tested on LNCaP cells (assay: LNCaP cell viability assay (MTS)). Conditions: Homo sapiens, LNCaP cell line, 48 hours.
Assay type: cell-based
Procedure, shortened: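 LNCaP cells (5000/well) treated 24 h after plating with compound at 1–80 µM for 48 h. Relative cell number read by MTS; GI50 from four-parameter variable-slope log(inhibitor) fit with bottom constrained to zero.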

Structure (SMILES) | GI50 [µM]
CN(C)CC(NS(=O)(=O)c1ccc(OC2CC2)cc1)c1ccc(Cl)c(Cl)c1 (centres unmarked) [Compound 154, 4-cyclopropoxy-N-(1-(3,4-dichlorophenyl)-2-(dimethylamino)ethyl)benzenesulfonamide] | 53.8

Same assay, conditions: Homo sapiens, LNCaP, 48 h, LNCaP cell line

GI50 [µM] | Structure (SMILES)
1.4 | CN(C)C[C@@H](NS(=O)(=O)c1ccc(OC(F)(F)F)c([N+](=O)[O-])c1)c1ccc(Cl)c(Cl)c1 (single isomer, unassigned) [Compound 203, N-(1-(3,4-dichlorophenyl)-2-(dimethylamino)ethyl)-3-nitro-4-(trifluoromethoxy)benzenesulfonamide]
26 | O=S(=O)(N[C@H](Cc1cc(F)c(F)cc1F)CC(F)(F)F)c1ccc(OC(F)(F)F)cc1 [Compound 85, (R)—N-(4,4,4-trifluoro-1-(2,4,5-trifluorophenyl)butan-2-yl)-4-(trifluoromethoxy)benzenesulfonamide]
35.3 | COC(=O)C[C@H](NS(=O)(=O)c1ccc(OC(F)(F)F)cc1)c1cc(Cl)cc(Cl)c1 [Compound 39, Methyl (S)-3-(3,5-dichlorophenyl)-3-((4-(trifluoromethoxy)phenyl)sulfonamido)propanoate]
25 | CC(NS(=O)(=O)c1ccc(OC(F)(F)F)cc1)C1(c2ccc(Br)cc2)CC1 (centres unmarked) [Compound 70, N-(1-(1-(4-bromophenyl)cyclopropyl)ethyl)-4-(trifluoromethoxy)benzenesulfonamide]
25 | O=S(=O)(NCC1(c2cc(C(F)(F)F)ccc2Cl)CC1)c1ccc(OC(F)(F)F)cc1 [Compound 88, N-((1-(2-chloro-5-(trifluoromethyl)phenyl)cyclopropyl)methyl)-4-(trifluoromethoxy)benzenesulfonamide]
10.5 | O=S(=O)(NC(CN1CC2CC1CN2)c1ccc(Cl)c(Cl)c1)c1ccc(OC(F)(F)F)cc1 (single isomer, unassigned) [Compound 261a, N-(2-(2,5-diazabicyclo[2.2.1]heptan-2-yl)-1-(3,4-dichlorophenyl)ethyl)-4-(trifluoromethoxy)benzenesulfonamide]
31.4 | CN(C)CC(NS(=O)(=O)c1ccc(OC(F)(F)F)c(N)c1)c1ccc(Cl)c(Cl)c1 (centres unmarked) [Compound 176, 3-amino-N-(1-(3,4-dichlorophenyl)-2-(dimethylamino)ethyl)-4-(trifluoromethoxy)benzenesulfonamide]
31 | O=S(=O)(NCCNS(=O)(=O)c1ccc(F)c(Cl)c1)c1ccc(OC(F)(F)F)cc1 [Compound 96, 3-chloro-4-fluoro-N-(2-((4-(trifluoromethoxy)phenyl)sulfonamido)ethyl)benzenesulfonamide]
26.6 | CN(C)CC(NS(=O)(=O)c1ccc(Oc2ccc(F)cc2)cc1)c1ccc(Cl)c(Cl)c1 (centres unmarked) [Compound 221, N-(1-(3,4-dichlorophenyl)-2-(dimethylamino)ethyl)-4-(4-fluorophenoxy)benzenesulfonamide]
24.9 | CN(C)CC(NS(=O)(=O)c1ccc2c(c1)OC(F)(F)O2)c1ccc(Cl)c(Cl)c1 (centres unmarked) [Compound 156, N-(1-(3,4-dichlorophenyl)-2-(dimethylamino)ethyl)-2,2-difluorobenzo[d][1,3]dioxole-5-sulfonamide]
39.6 | CN(C)CC(c1ccc(Cl)c(Cl)c1)N(C)S(=O)(=O)c1ccc(OC(F)(F)F)cc1 (centres unmarked) [Compound 250, N-(1-(3,4-dichlorophenyl)-2-(dimethylamino)ethyl)-N-methyl-4-(trifluoromethoxy)benzenesulfonamide]
22.8 | CN(C)CC(NS(=O)(=O)c1ccc(OC(F)(F)F)c(Cl)c1)c1ccc(Cl)c(Cl)c1 (single isomer, unassigned) [Compound 201, 3-chloro-N-(1-(3,4-dichlorophenyl)-2-(dimethylamino)ethyl)-4-(trifluoromethoxy)benzenesulfonamide]
47.7 | O=S(=O)(NCC1(c2ccc(Cl)c(Cl)c2)CC1)c1ccc(Oc2ccc(C(F)(F)F)cc2)cc1 [Compound 231, N-((1-(3,4-dichlorophenyl)cyclopropyl)methyl)-4-(4-(trifluoromethyl)phenoxy)benzenesulfonamide]
34.7 | O=S(=O)(N[C@@H](CCO)c1ccccc1)c1ccc(OC(F)(F)F)cc1 [Compound 12, (S)—N-(3-hydroxy-1-phenylpropyl)-4-(trifluoromethoxy)benzenesulfonamide]
46 | CN(C)CC(NS(=O)(=O)c1cccc(Cl)c1)c1ccc(Cl)c(Cl)c1 (centres unmarked) [Compound 163, 3-chloro-N-(1-(3,4-dichlorophenyl)-2-(dimethylamino)ethyl)benzenesulfonamide]
42.4 | CN(C)CC(NS(=O)(=O)c1ccc(OC(F)(F)F)cc1)c1ccc(F)c(Cl)c1 (centres unmarked) [Compound 167, N-(1-(3-chloro-4-fluorophenyl)-2-(dimethylamino)ethyl)-4-(trifluoromethoxy)benzenesulfonamide]
25.2 | CC(C)c1ccc(S(=O)(=O)NC(CN(C)C)c2ccc(Cl)c(Cl)c2)cc1 (centres unmarked) [Compound 213, N-(1-(3,4-dichlorophenyl)-2-(dimethylamino)ethyl)-4-isopropylbenzenesulfonamide]

Same assay, conditions: LNCaP cell line, 48 hours

GI50 [µM] | Structure (SMILES)
51.3 | CN(C)CC(NS(=O)(=O)c1ccc(OC(F)(F)F)cc1)c1ccc(Cl)cc1 (single isomer, unassigned) [Compound 180, N-(1-(4-chlorophenyl)-2-(dimethylamino)ethyl)-4-(trifluoromethoxy)benzenesulfonamide]

Each compound was assayed on HCC1937 cells (assay: HCC1937 cell viability assay (MTS)). Conditions: Homo sapiens; HCC1937 cell line, 48 hours, MTS assay (footnote a).
Assay type: cell-based
Protocol: HCC1937 cells are plated in a 96 well plate format at a density of 10,000 cells per well. After incubation overnight, cells are treated with a compound (e.g., compound 263) at following concentrations: 80, 40, 20, 10, 5, 2.5, 1.25 μM. Compound concentrations are prepared in RPMI via serial dilutions from a starting stock of 80 mM. 48 hours after compound treatment, cell viability is assessed using the Promega CellTiter 96 aqueous one proliferation assay (Promega G3582, MTS assay) according to manufacturer's protocol.
The cell viability data was analyzed with GraphPad Prism software. The values were log transformed and analyzed with non-linear regression (curve-fit) using log(inhibitor) vs. response-variable slope (four parameters) and constraining the bottom to equal zero. Unless otherwise indicated, the GI50 values provided in Table 113 correspond to the LNCaP cell viability assays.

GI50 [µM] | Structure (SMILES)
75.7 | O=S(=O)(NCC1(c2ccccc2)CCCN1)c1ccc(OC(F)(F)F)cc1 (centres unmarked) [Compound 263, N-((2-phenylpyrrolidin-2-yl)methyl)-4-(trifluoromethoxy)benzenesulfonamide]
